# Results: patent publication US20040121965A1, “Method of treating resistant tumors” (Wyeth Holdings Corporation, priority 2002, published 2004)
# Read-outs that look alike come from different tables or passages of the source. Square brackets hold non-standard residues; d marks the D form. Peptide text beside a SMILES is read from it. * marks the point of attachment. X1 = COC1=CC(=O)N(C(=O)[C@@H](O*)C(C)C)[C@H]1Cc1ccccc1; NMe2Val = CC(C)[C@@H](C(=O)*)N(C)C; NMeV = CN[C@H](C(=O)O)C(C)C
# How the values were obtained:
# [1] = system: KB-3-1; experiment: Cell survival assay (SRB), KB-3-1; assay type: cell-based, human
# In short: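 IC50 for 50% growth inhibition after 3-day compound exposure, tested in duplicate. SRB protein staining of TCA-fixed cells (10% TCA, 1 hr, 4 °C), solubilised in Tris base and read by absorbance, was used as the survival read-out, with KB-3-1 grown in 20% FCS.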
# [2] = system: KB-HTI-4.0; experiment: Cell survival assay, KB-3-1 line made resistant to Example 129 (KB-HTI-4.0); assay type: cell-based, human
# Excerpt: Cells lines with previously known mechanisms of resistance. […] Res. 8: 207-218,1996); KB-3-1 (parental derived from an epidermoid carcinoma), KB-8.5, KB-V1 (Akiyama S-I, Fojo A, Hanover J A, Pastan I, Gottesman M M. Isolation and genetic characterization of human KB cell lines resistant to multiple drugs. Somatic Cell Mol. Gen., 11: 117-126,1985; Shen D-W, Cardarelli C, Hwang J, Cornwell M, Richert N, Ishii S, Pastan I, Gottesman MM. […] J. Biol. Chem., 261: 7762-7770, 1986); and HL-60 (parental derived from human leukemia) and HL60/AR (McGrath T., Center M. S. Adriamycin resistance in HL60 cells in the absence of detectable P-glycoprotein. Biochem. Res. Commun., 145:1171-1176,1987); A549 and A549.EpoB40 (He L., Yang C.-P.H., Horwitz S. B. Mutations in p-tubulin map to domains involved in regulation of microtubule stability in epothilone-resistant cell lines. Molecular Cancer Therapeutics. 1: 3-10, 2001). HCT-15 human colon carcinoma and DLD-1 human colon carcinoma are obtained from American Tissue Culture Collection. The MX-1W carcinoma is a Wyeth variant orginally obtained as MX-1 breast carcinoma from the National Cancer Institute. Cell lines selected for resistance to Representative Example 129. KB-3-1 cells are selected for resistance to Example 129 by chronically exposing cells to increasing concentrations of Example 129.
# 2.2. Cell Survival Assay: Standard Pharmacological Test Procedure. The concentration of candidate inhibitor required to inhibit 50% of cell growth (IC50) is done according to previously reported methods. […] Compounds are serially diluted into media as 2× stocks and 100 μl added to cells in duplicate. Compounds are incubated with cells for 3 days. At the end of the incubation period the sulforhodamine B (SRB) assay, which measures protein content as an assessment of cell survival, is performed as described previously (Skehan P, Storeng R, Scudiero D, Monks A, McMahon J, Vistica D, Warren J T, Bokesch H, Kenney S, Boyd MR. New calorimetric cytotoxicity assay for anticancer-drug screening. J Natl Cancer Inst 1990 Jul 4;82(13):1107-12) with some modification as follows. For KB-3-1 cells with 20% FCS, media is gently decanted and replaced with 200 μl of serum-free media mixed with cold 50% TCA for a final concentration of 10% TCA. The plates are incubated for 1 hr at 4° C., followed by washing 5 times in cold distilled water, then air dried overnight. The fixed cells are stained for 10 min with 80 μl of 0.04% SRB solution prepared in 1% glacial acetic acid. Stain is discarded and plates washed 5 times in 1% glacial acetic acid, then air-dried until completely dry. Stained cell product is dissolved in 150 μl of 10 mM Trizma Base and placed on a shaker for 20 minutes until fully dissolved. Absorbance is read on a Victor V multi-label plate reader (Perkin Elmer, Gaithersburg, Md.).
# Cells are selected for resistance to Example 129 to understand the frequency and mechanistic basis of resistance.
# [3] = system: Human Melanoma Carcinoma Lox; conditions: staged LOX xenograft; at MTD ('<': MTD not achieved); days 11-15
# Protocol: 2.4. Growth of Tumors in Nude Mice. […] In these experiments, xenografts are implanted subcutaneously into the flanks of nude mice. […] Relative tumor mass compared to controls are assessed during the 21-day post-staging period.
# Groups of 5 female nu/nu mice are injected with 1.5×10^6 KB-3-1 (A) or Lox cells (B). […] Relative tumor growth is determined during the experiment and % T/C calculated. Statistical analyses are Student's t-test of treated time points vs. vehicle (*, P<0.05; **, P<0.01)
# [4] = system: KB-8-5 (MDR1+); experiment: Cell survival assay (SRB), KB-8-5 (MDR1+); conditions: for IC50: Homo sapiens, MDR1, read-out: In vitro IC50 (nM) KB85
# [5] = system: KB-V1 (MDR1++); experiment: Cell survival assay (SRB), KB-V1 (MDR1++); conditions: for IC50: Homo sapiens, read-out: In vitro IC50 (nM) KBV1
# [6] = Homo sapiens, KB-3-1 parental, Table 8, read-out: KB-3-1 IC50
# [7] = Homo sapiens, KB-3-1 line made resistant to Example 129, Table 8, read-out: KB-HTI-4.0 IC50
# [8] = Homo sapiens, KB 3-1, 72 h, amount of drug needed to kill 50% of cells after three days continuous exposure, Table 11, read-out: IC50 in parental cell line KB-3-1
# [9] = Homo sapiens, KB 3-1, KB-3-1 cells (paclitaxel-sensitive parent), read-out: In vitro IC50 (nM) KB-3-1
structure (smiles),measurement,setting,value
C(=N\NC1=NCCN1)/c1c2ccccc2c(/C=N/NC2=NCCN2)c2ccccc12 [Bisantrene],IC50,[1]; [6],119 ± 47 nM
same,IC50,[2]; [7],299 ± 91 nM
same,(RR) relative resistance vs. parental cells,[2]; KB-HTI-4.0 vs KB-3-1,(3)
"CC[C@@]1(O)C(=O)OCc2c1cc1n(c2=O)Cc2cc3ccccc3nc2-1 [Camptothecin, camptothecin]",IC50,[1]; [6],14.9 ± 6.11 nM
same,IC50,[2]; [7],335 ± 157 nM
same,(RR) relative resistance vs. parental cells,[2]; KB-HTI-4.0 vs KB-3-1,(23)
COC1=CC(=O)N(C(=O)[C@@H](OC(=O)[C@@H]2CCCN2C(=O)[C@@H]2CCCN2C(=O)[C@H](C(C)C)N(C)C(=O)[C@@H](NC(=O)[C@H](C(C)C)N(C)C)C(C)C)C(C)C)[C@H]1Cc1ccccc1 [Dolastatin −15] (NMe2Val-V[NMeV]PP-X1),IC50,"[1]; KB-3-1 parental, Table 8, read-out: KB-3-1 IC50",0.04 ± 0.05 nM
same,IC50,"[2]; KB-3-1 line made resistant to Example 129, Table 8, read-out: KB-HTI-4.0 IC50",0.49 ± 0.14 nM
same,(RR) relative resistance vs. parental cells,[2]; KB-HTI-4.0 vs KB-3-1,(12)
CO[C@]12C=C[C@](C)(O1)[C@@H](OC(=O)/C=C/c1cn(C)cn1)C[C@H]1C(C)=CC[C@H](C(C)C)[C@H]1/C=C\2CO[C@@H]1OC[C@@H](O)[C@@H](O)[C@@H]1OC(C)=O [Eleutherobin],IC50,"[1]; Homo sapiens, KB 3-1, read-out: KB-3-1 IC50, nM",17.4 ± 1.63 nM
same,(RR) relative resistance vs. parental cells,[2],(1)
same,IC50,"[2]; Homo sapiens, KB 3-1, read-out: KB-HTI-4.0 IC50, nM",21.3 ± 4.4 nM
"CN[C@H](C(=O)N[C@H](C(=O)N(C)[C@H](/C=C(\C)C(=O)O)C(C)C)C(C)(C)C)C(C)(C)c1cccc(Cl)c1 [Example 2, 3-Chloro-N,β,β-trimethyl-L-phenylalanyl-N^1-[(1S,2E)-3-carboxy-1-isopropyl-2-butenyl]-N^1,3-dimethyl-L-valinamide]",IC50,[1]; [8],1.1 nM
same,IC50,[1]; [9],1.14 nM
same,Activity in nude mice animal model (% T/C @ MTD on days 11-15) LOX,[3],9%
same,Ratio KB85/KB,[4],2.8
same,IC50,[4],3.2 nM
same,Ratio KBV1/KB,[5],80.0
same,IC50,[5],91 nM
"CN[C@H](C(=O)N[C@H](C(=O)N(C)[C@H](/C=C(\C)C(=O)O)C(C)C)C(C)(C)C)C(C)(C)c1ccc(C)c(C)c1 [Example 14, N,β,β,3,4-Pentamethyl-L-phenylalanyl-N^1-[(1S,2E)-3-carboxy-1-isopropyl-2-butenyl]-N^1,3-dimethyl-L-valinamide]",IC50,[1]; [8],0.4 nM
same,IC50,[1]; [9],0.408 nM
same,Activity in nude mice animal model (% T/C @ MTD on days 11-15) LOX,[3],2%
same,Ratio KB85/KB,[4],2.8
same,IC50,[4],1.13 nM
same,Ratio KBV1/KB,[5],95.6
same,IC50,[5],39 nM
"CN[C@H](C(=O)N[C@H](C(=O)N(C)[C@H](/C=C(\C)C(=O)O)C(C)C)C(C)(C)C)C(C)(C)c1cccs1 [Example 20, N-Methyl-3-(2-thienyl)-L-valyl-N^1-[(1S,2E)-3-carboxy-1-isopropyl-2-butenyl]-N^1,3-dimethyl-L-valinamide]",IC50,[1]; [8],2 nM
same,IC50,[1]; [9],2 nM
same,Activity in nude mice animal model (% T/C @ MTD on days 11-15) LOX,[3],3%
same,Ratio KB85/KB,[4],2.0
same,IC50,[4],3.9 nM
same,Ratio KBV1/KB,[5],80.9
same,IC50,[5],162 nM
"C/C(=C\[C@H](C(C)C)N(C)C(=O)[C@@H](NC(=O)[C@@H](N(C)C)C(C)(C)c1ccccc1)C(C)(C)C)C(=O)O [Example 52, N,N,β, β-Tetramethyl-L-phenylalanyl-N^1-[(1S,2E)-3-carboxy-1-isopropyl-2-butenyl]-N^1,3-dimethyl-L-valinamide]",IC50,[1]; [8],1.6 nM
same,IC50,[1]; [9],1.55 nM
same,Activity in nude mice animal model (% T/C @ MTD on days 11-15) LOX,[3],1%
same,Ratio KB85/KB,[4],2.4
same,IC50,[4],3.7 nM
same,Ratio KBV1/KB,[5],74.6
same,IC50,[5],116 nM
